# Tested on: astrocytes
# Assay: Astrocytes by GFAP immunofluorescence
# Format: in vivo, mouse
# Conditions: 0.3 mg/kg every three days
# Experimental: Representative images of astrocytes stained for GFAP (red) in the cerebellum, hippocampus and cortex of wt and ASMko mice treated or not with PF-04457845. […] Graphs show mean±SEM GFAP intensity in arbitrary units (n=7, **p<0.01, *p<0.05).
# Treatment started at 7 weeks of age and continued for 8 weeks. PF-04457845 was dissolved in 0.9% NaCl and delivered through oral gavage at a dose of 0.3 mg/kg every three days. We chose this dose based on the studies published by Ahn et al., (J Pharm Exp Ther 2011). Control groups received same volume of 0.9% NaCl without PF-04457845.
# Brain inflammation was determined by analysis of glial cells in the cerebellum, hippocampus and cortex. The number and morphology of microglia was analyzed by immunofluorescence staining with the marker iba-1 (FIG. 16). […] PF-04457845 treatment had no effect in microglia of wt mice. The amount of astrocytes was analyzed by immunofluorescence with the marker GFAP (FIG. 17). […] PF-04457845 treatment had no effect in astrocytes of wt mice (FIG. 17).
structure (smiles),measurement,setting,value
O=C(Nc1cccnn1)N1CCC(=Cc2cccc(Oc3ccc(C(F)(F)F)cn3)c2)CC1 [PF-04457845],"GFAP intensity in cerebellum, hippocampus and cortex",ASMko mice,reduced GFAP intensity in all areas but the effect was significant only in the cerebellum
same,astrocytes (GFAP),wt mice,no effect
